Test results reported in patent publication US9649313B2, “Use of ITK inhibitors for the treatment of cancer” (The University of North Carolina at Chapel Hill, priority 2012, dated 2017).

Tests used:
[1] = tested on: SKMEL 103 (ITKINT) melanoma cell line; assay: single cell motility assay; format: cell-based, Human
Protocol: (§1) FIG. 5A-5C. Effects of BI 10N inhibitor on proliferation and motility of melanoma cells. FIG. 5A) Cell motility assays were performed as described in FIG. 4A-4E; however, the inhibitor BI 10N was added to the media to decrease ITK kinase activity in parental cell lines instead of using the shRNA ITK knockdown cell lines. BI 10N was added to the media 24 hours prior to the start of the motility assay and the VivaView camera system was used to image cellular motility of the melanoma cells as described previously. FIG. 5B) The proliferation assays were completed as described in FIG. 4A-4E, substituting the BI 10N compound for the shRNA. Cells were trypsinized and counted using the Invitrogen Countess. Fifty thousand cells were placed into each well of a 6 well plate and BI 10N was added to the indicated concentrations. The cells were counted with the Invitrogen Countess at 3, 5, and 6 or 7 days after plating to assess the proliferation rates of the different cell lines in the presence of BI 10N. FIG. 5C) Both ITKHI (RPMI 8322) and ITKLO (PMWK) melanoma cell lines were grown in the presence of BI 10N (10-200 nM) in soft agar. In 24-well cell culture plates 2,500 cells per well were added to a 1.4% agarose solution. The agarose and cell solution was then poured on top of a solidified base agar. The cells were incubated at 37° C. for three to four weeks to ensure adequate growth before analysis. FIG. 5D) Cell cycle analysis of PMWK, VMM 39, and RPMI 8322 cells that have been treated with increasing concentrations of BI 10N. Following 3 days of BI 10N treatment, the cells were incubated with EdU for 3 hours and were subsequently assessed for 5-ethynyl-2′-deoxyuridine (EdU) incorporation rate and DNA content with FxCycle Violet. Shown in this panel are the percentages of cells in G0/G1 (low DNA and EdU content), S (high EdU and low-to-medium DNA content), and G2/M (Low EdU and high DNA content)
(§2) Single cell tracking was performed as described (Williams et al., 2012 Circ Res 111(1):56-65). Briefly melanoma cells were plated on 5 μg/cm2 collagen coated MatTek dishes (MatTek Corp., Ashland, Mass. part #P35G-1.5-10-C) and allowed to attach for 24 hours in the presence of either DMSO (1:1000) or BI 10N in DMSO. Cells were monitored for 16 hours using the Olympus VivaView live cell imaging microscope system. Images were taken at a magnification of 10× and were converted to stacks using Image J software. Single-cells were tracked using Image J manual tracking software and velocities were obtained.

[2] = tested on: A375 (ITKINT) melanoma cell line; assay: single cell motility assay; format: cell-based, Human
Protocol: as §1, §2

[3] = tested on: SKMEL 153 (ITKHI) melanoma cell line; assay: single cell motility assay; format: cell-based, Human; details: 10-25 nM
Protocol: as §1, §2

[4] = tested on: SKMEL 131 (ITKLO) melanoma cell line; assay: single cell motility assay; format: cell-based, Human
Protocol: as §1, §2

VMM 39 (ITKHI) cells = assay: cell cycle analysis (EdU, FxCycle Violet); format: cell-based, Human; details: 3 days of treatment, dose-dependent
Protocol: as §1
(§3) Melanoma cells were grown to approximately 60% confluence in T25 tissue culture flasks (Corning Product #430639). […]

PMWK (ITKLO) cells = assay: cell cycle analysis (EdU, FxCycle Violet); format: cell-based, Human; details: 3 days of treatment
Protocol: as §1, §3

RPMI 8322 (ITKHI) cells = assay: cell cycle analysis (EdU, FxCycle Violet); format: cell-based, Human; details: 3 days of treatment, dose-dependent
Protocol: as §1, §3

56 protein kinases = assay: cell-free kinase selectivity panel; format: biochemical; details: versus 51 of the 56 protein kinases tested
Text: To assess the effect of pharmacologic inhibition of ITK activity in melanoma preclinical models, we used BI 10N, which has been previously shown to inhibit ITK's phosphoryl-transfer activities (Kashem et al., 2007; Riether et al., 2009). We investigated the potency and selectivity of BI 10N against 56 kinases using a cell-free assay (Table 8A).

[5] = tested on: VMM 39 (ITKHI) xenograft tumors; assay: melanoma xenograft mouse model; format: in vivo, nude mice; details: VMM 39 xenograft; 15 mg per kg in food
Protocol: (§4) FIG. 6A-6F. Effects of BI 10N inhibitor on growth of melanoma xenografts in vivo. FIG. 6A-6C) Cell lines RPMI 8322 (ITKHI), VMM 39 (ITKHI), and A375 (ITKINT) were grown as described previously, suspended in matrigel and injected into the flanks of nude mice as described in the Materials and Methods section. The mice received either BI 10N at a concentration of 15 mpk or no treatment. Mice were then followed to assess the effect of the treatments on tumor progression. FIG. 6D-6F) Effect of BI 10N (15mpk) on tumor growth (mean and standard error of mean) in A375, RPMI 8322, and VMM 39 melanoma xenografts. […] Samples sizes are indicated in parentheses.
(§5) Nude athymic animals were acquired through the UNC Animal Studies Core and are similar to Jackson Labs (strain 000819). Mice were aged to 10 weeks and inoculated in the hind flank with 500K cells suspended in a 50/50 solution of Hank's Solution plus 2% FBS and matrigel (BD cat#356234). Once weekly caliper measurements of the length and width of the tumors were recorded; volume was then calculated using the formula ((L^2)×W)/2. Treatment began when a tumor reached an approximate size of 60 mm^3. Mice received compounds orally via admixture with standard rodent diet (Research Diets, Inc; New Brunswick, N.J.) or the same diet for non-treated mice as per MP1U (mouse phase I unit) protocol (Roberts et al., 2012 Clin Cancer Res 18(19):5290-5303). Tissues were cut in half and either flash frozen and then stored at −80 or formalin-fixed/paraffin embedded.

[6] = tested on: A375 (ITKINT) xenograft tumors; assay: melanoma xenograft mouse model; format: in vivo, nude mice; details: 15 mg per kg in food
Protocol: as §4, §5

[7] = tested on: RPMI 8322 (ITKHI) xenograft tumors; assay: melanoma xenograft mouse model; format: in vivo, nude mice; details: RPMI 8322 xenograft; 15 mg per kg in food
Protocol: as §4, §5

CC(C)C(C)CNCc1ccc2c(c1)[nH]/c(=N\C(=O)c1ccc(C3=CN=NC3)s1)n2CC(C)(C)O (centres unmarked) [BI 10N]
concentration required for smaller changes in migration [1]: ≥ 150 nM | effect on migration ([1]; 10-25 nM): unaffected | concentration required for smaller changes in migration [2]: ≥ 150 nM | effect on migration ([2]; 10-25 nM): unaffected | decrease in migration [3]: about 50% | concentration required for smaller changes in migration [4]: ≥ 150 nM | effect on migration ([4]; 10-25 nM): do not decrease | cell cycle profile (VMM 39 (ITKHI) cells): increased the percentage of cells in the G0/G1 phase and decreased the percentage of cells in the S phase | cell cycle profile (PMWK (ITKLO) cells): No cell cycle changes | cell cycle profile (RPMI 8322 (ITKHI) cells): increased the percentage of cells in the G0/G1 phase and decreased the percentage of cells in the S phase | selectivity for ITK over other protein kinases (56 protein kinases): at least 1000 fold | tumor growth [5]: significantly slowed | tumor growth [6]: did not slow | tumor growth [7]: significantly slowed
